In patent US20070212355A1 (priority 2005, published 2007):

Columns and labels:
[1] = Helical propensity analysis using TFE (CD at 222 nm); format: physicochemical; settings: 0.2 mg/mL in PBS (pH 7.5), MRE at 222 nm
Description: In addition, trifluoroethanol (TFE) is known to induce helix formation in peptides (Soennichsen et al., Biochemistry 31: 8791 (1992)). Accordingly, helical propensity analysis using TFE was performed. Briefly, tested peptides were diluted to 0.2 mg/mL in PBS (pH 7.5) containing 0, 1, 5, 15, 33 or 50% TFE. CD spectra were collected and CD plots were generated after data averaging, buffer subtraction and curve smoothing. Helical propensity values were obtained from mean residue ellipticity (MRE) at 222 nm versus % TFE plots. The concentration of TFE that effected a 50% transformation of the CD spectrum at 222 nm was used as a measure of helical propensity.

[2] = SEC-SLS self-association of peptides in PBS (pH 7.5); format: physicochemical
Description: The self-association poses a challenge to the development and manufacturing of a homogeneous therapeutic.
Solution molecular weight of the peptides was measured by SEC-SLS. Briefly, peptide solutions in PBS (pH 7.5) at 0.4 to 2.0 mg/mL were fractionated over a Superdex peptide column (Amersham Pharmacia). The eluted peaks were monitored by static light scattering at 690 nm and solution molecular weight was determined at UV 280 nm using the Astra software package (Wyatt Inc.).

mutated human GLP-2R = target: T1, mutated human GLP-2R (Homo sapiens, UniProt O95838, E512D/G511A/L513V); test: cAMP expression assay in HEK 293E clonal cell line expressing mutated human GLP-2R; format: cell-based; settings: assay set-up, vs control peptide
T1 construct: expressed in transfected cells; host or cells: HEK 293E clonal cell line
T1 sequence (O95838 1-553 G511A/E512D/L513V): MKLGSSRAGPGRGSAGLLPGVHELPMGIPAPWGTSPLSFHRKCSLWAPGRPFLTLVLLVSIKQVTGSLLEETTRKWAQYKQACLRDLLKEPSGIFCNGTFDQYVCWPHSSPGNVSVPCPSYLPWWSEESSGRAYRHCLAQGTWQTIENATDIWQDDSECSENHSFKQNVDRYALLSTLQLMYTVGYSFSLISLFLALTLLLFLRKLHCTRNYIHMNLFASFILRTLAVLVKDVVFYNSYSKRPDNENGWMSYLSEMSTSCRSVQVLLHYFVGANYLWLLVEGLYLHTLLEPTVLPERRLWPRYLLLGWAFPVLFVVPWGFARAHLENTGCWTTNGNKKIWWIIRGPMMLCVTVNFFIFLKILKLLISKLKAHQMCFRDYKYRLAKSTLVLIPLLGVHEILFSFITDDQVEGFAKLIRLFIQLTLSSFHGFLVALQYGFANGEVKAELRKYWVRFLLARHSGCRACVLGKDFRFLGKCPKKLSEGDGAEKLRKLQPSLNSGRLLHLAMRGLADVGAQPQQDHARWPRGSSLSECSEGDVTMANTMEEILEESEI
Text: To achieve this goal, a clonal cell line expressing a mutated human GLP-2R was generated by transfecting HEK 293E cells. The mutated human GLP-2R differs from the wild-type human GLP-2R (SEQ ID NO: 35) at three amino acid positions within the C-terminal intracellular region (SEQ ID NO: 36).
The cAMP expression was quantitated using the cAMP Direct Screen System (Cat. No. CSD 200, Applied Biosystems, Bedford, Mass.).
This assay was based on the cAMP Direct Screen System from Applied Biosystems utilizing a cell line expressing mutated huGLP-2R in HEK 293E cells. Peptide at concentrations ranging from 0.01 nM to 1.0 uM in PBS with 0.5% BSA was added to ˜50,000 cells suspended in 96-well plates. After a 30-minute incubation at 37° C., Lysis Buffer followed by luminescence reagents (Applied Biosystems) was added according to the manufacturers' procedures (Applied Biosystems Luminescence protocol: cAMP-Screen Direct System). Luminescence was quantitated using a TopCount liquid scintillation analyzer (PerkinElmer), and data was processed using Softmax software (Molecular Devices Corporation).

[3] = CD spectra secondary structure of peptides; format: physicochemical; settings: 0.2 mg/mL in PBS, 25° C.
Description: The secondary structures of tested peptides were determined using 0.2 mg/mL peptide solutions in PBS. Briefly, CD spectra were collected in triplicate at 1 nm intervals at 25° C. in 0.1 cm path length cell. Secondary structures were determined by fitting of the CD spectra using CD spectra software (CD Spectra Deconvolution software 2.1). All tested peptides contained peaks corresponding to the presence of alpha helices.

[4] = humans; cited from earlier work
[5] = Pharmacokinetics in CD1 mice, TRF assay of active mimetibody; format: in vivo
Text: Blood was collected at different time points into citrate buffer containing protease inhibitors to minimize the possibility of ex vivo degradation and plasma was separated by centrifugation.
(§1) A time resolved fluorescence (TRF) assay was used to measure active mimetibody. Active mimetibody reflects the intact N-terminus of the peptide still attached to the Fc region of the mimetibody.

CD1 mice = test: Mucosal wet weight of small intestine after 10 daily subcutaneous injections; format: in vivo
Text: Afterwards, the mice were euthanized and the small intestines were removed, flushed with saline, and processed as described below.
(§2) Specifically, 4 cm sections were harvested: (1) immediately distal to the pylorus (duodenum), (2) starting 2 cm distal of the ligament of Treitz (jejunum), and (3) immediately proximal to the cecum (ileum). The remaining small intestine from ˜6 cm distal of the ligament of Treitz to 4 cm proximal to the cecum was used to prepare mucosal scrapings. From the proximal and distal ends of the remnant, an equal distance was removed until a 15 cm section remained, the remnant was cut longitudinally, rinsed, and the mucosal layer was removed using the short end of a glass microscope slide. The wet weight of the intact intestinal segments and mucosa was measured.

mice [6] = test: Pharmacodynamics: dosing-regimen study, intestinal weights, 11 days; format: in vivo
Text: as §2
The duration of the study was 11 days and tissue was processed as described in Example 4.

[7] = Pharmacokinetics in cynomolgus monkeys, TRF assay; format: in vivo; settings: 1 mg/kg intravenously
Text: as §1

mice [8] = test: Upper gastrointestinal transit, FITC-dextran method, normal mice; format: in vivo; settings: for upper gastrointestinal transit (FITC-dextran): single 4 mg/kg dose 4 days prior, FIG. 4, 4 mg/kg
Description: On the day of study, upper gastrointestinal transit was measured using the FITC-dextran method. This method provides both, a measure of gastrointestinal transit and a readout of the pattern of distribution of the test meal along the gastrointestinal tract. Mice were fed a test meal of […] of FITC-dextran solution (5 mg/ml of 70,000 molecular weight dextran conjugated to fluorescein-isothiocyanate in 0.5% methylcellulose/deionized water) administered intragastrically by an 18 gauge curved feeding tube. Following oral administration of the FITC-dextran test meal, mice were returned to their home cages. It was shown that a 30 min test period was the optimum duration for detecting accelerated transit, while a 45 min test period was optimum for detecting delayed transit. Following the appropriate test period, mice were sacrificed by carbon dioxide exposure. The entire gastrointestinal tract from the lower esophageal sphincter to the terminal colon was removed. The bowel segments were opened along the mesenteric border. The tissue and luminal contents of the stomach, 10 equal segments of small intestine, the cecum, and 3 equal segments of colon were placed in individual Eppendorf tubes containing 1 ml of PBS. The tissue was vigorously mixed on a table-top vortex, and solid materials were pelleted by centrifugation. Aliquots of the cleared supernatant were read in duplicate on a 96-well fluorescence plate reader to quantify the magnitude of the fluorescent signal in each segment of bowel. These values were used to calculate the Geometric Center (GC), which is defined as the weighted average distribution of the fluorescent signal along the gastrointestinal tract: GC=Σ(% of total fluorescent signal per segment×segment number)/100. Higher values represent faster rates of transit on scale of 1 to 15. […] The mimetibody-induced shift in the distribution pattern of FITC-dextran is shown in the upper panel. […] The GC is calculated in the lower panel for statistical comparison.

[9] = SEC-SLS analysis of mimetibodies (monomer/dimer); format: physicochemical; settings: purified from HEK 293E/HEK 293 expression

In the case of CC[C@H](C)[C@H](NC(=O)[C@H](Cc1ccccc1)NC(=O)[C@H](CC(=O)O)NC(=O)[C@H](CCCNC(=N)N)NC(=O)[C@H](C)NC(=O)[C@H](C)NC(=O)[C@H](CC(C)C)NC(=O)[C@H](CC(N)=O)NC(=O)[C@H](CC(=O)O)NC(=O)[C@H](CC(C)C)NC(=O)[C@@H](NC(=O)[C@@H](NC(=O)[C@H](CC(N)=O)NC(=O)[C@H](CCSC)NC(=O)[C@H](CCC(=O)O)NC(=O)[C@H](CC(=O)O)NC(=O)[C@H](CO)NC(=O)[C@H](Cc1ccccc1)NC(=O)[C@H](CO)NC(=O)CNC(=O)[C@H](CC(=O)O)NC(=O)[C@H](C)NC(=O)[C@@H](N)Cc1c[nH]cn1)[C@@H](C)O)[C@@H](C)CC)C(=O)N[C@@H](CC(N)=O)C(=O)N[C@@H](Cc1c[nH]c2ccccc12)C(=O)N[C@@H](CC(C)C)C(=O)N[C@H](C(=O)N[C@@H](CCC(N)=O)C(=O)N[C@H](C(=O)N[C@@H](CCCCN)C(=O)N[C@H](C(=O)N[C@H](C(=O)N[C@@H](CC(=O)O)C(=O)O)[C@@H](C)O)[C@@H](C)CC)[C@@H](C)O)[C@@H](C)CC [SEQ ID NO: 1], the “TFE required for helical transformation (helical propensity)” value [1] is reported as roughly 16 % TFE, the self-association state ([2]; 0.4 mg/mL) is reported as “monomer” and the “SEC-SLS elution / self-association state” value ([2]; 1 mg/ml) is reported as “overlapping dimer and monomer peaks”. For the same compound, the proportion of monomers ([2]; 2 mg/mL) was “about 20%”, the “proportion of reversibly self-associated dimer” value ([2]; 2 mg/mL) was “about 80%” and the “stimulation of cAMP expression” value (mutated human GLP-2R) was “stimulated cAMP expression”. The “Helix (percentage of helical structure)” value [3] was 19.6%, the “Random coil (percentage)” value [3] was 37.9% and the reported half-life [4] was 7.2 ± 2 min.

For “SEQ ID NO: 5: A2G GLP-2 IgG4 mimetibody; core HGDGSFSDEMNTILDNLAARDFINWLIQTKITDGSGGGSGTLVTVSSESKYGPPCPPCP”, the calculated half-life ([5]; CD1 mice, 3 mg/kg intravenously or subcutaneously, TRF) was 26.5 h, the “half-life relative to GLP-2 peptide” value ([5]; mimetibody in mice vs reported GLP-2 peptide in humans) was “more than 200 fold” and the “increase in mucosal wet weight vs control mimetibody” value (CD1 mice; 0.8 mg/kg (0.26 nmole) daily s.c. 10 days, p<0.0001) was “statistically significant”. The “increase in mucosal wet weight vs control mimetibody” value (CD1 mice; 8 mg/kg (2.6 nmole) daily s.c. 10 days, p<0.0004) was “statistically significant”, the “mucosal wet weight (15 cm segment between jejunum and ileum), dose response” value (CD1 mice; daily s.c. 10 days, female CD1 mice, FIG. 2) was “dose dependent increase” and the “effective in vivo dose lower than that of A2G GLP-2 peptide (molar basis)” value (CD1 mice; mucosal weight model) was 50 fold. For the same compound, the “mucosal weight difference to control mimetibody” value (mice [6]; 4 mg/kg every day or every other day, 11 day study, compared with once per week) was “more pronounced”, the “mucosal weight compared to control mimetibody” value (mice [6]; 4 mg/kg once per week, 11 day study) was “significantly increased mucosal weight” and the “duodenum and jejunum section wet weight over control mimetibody” value (mice [6]; 4 mg/kg, all regimens except for the single dose experiment) was “significant increase in weight”. For the same compound, the calculated half-life [7] was 115 h, the “upper gastrointestinal transit (FITC-dextran)” value (mice [8]; listed as A2G GLP-2 mimetibody) was “significant acceleration of intestinal transit” and the “upper gastrointestinal transit (FITC-dextran)” value (mice [8]; listed as GLP-2 mimetibody) was “acceleration of upper gastrointestinal transit”. The “Geometric Center (GC) of FITC-dextran” value (mice [8]; single injection 4 days prior, 30 minute test, scale 1 to 15, normal mice GC=6) was 7.5 and the “SEC-SLS association state of mimetibody” value [9] was “dimer”.
